For the assay, the target named is sialidase-1 (Homo sapiens, UniProt Q99519). Briefly: microscale thermophoresis. In kind it is binding.

A word on the Kd: it is the concentration at which binding is half-saturated. Read a high Kd as weaker binding. Molecule `COc1ccc(C(=O)c2ccc(C)cc2)c(O)c1` [mexenone] came in with a Kd of 8.88 µM.
The same measure for `COc1cnc(NS(=O)(=O)c2ccc(N)cc2)nc1` [sulfameter]: 2.15 µM.

The values are drawn from PMC7860073 (ACS Omega, 2021).
